# Biological target: S. aureus GyrB ATPase (Staphylococcus aureus, UniProt P0A0K8)
# Assay: S. aureus GyrB ATPase inhibition (ammonium molybdate/malachite green phosphate detection)
# Format: biochemical
# Settings: compound concentration of 1 μM (unless otherwise noted)
# Method: E. coli GyrB ATPase Inhibition Activity: Compounds can be tested for inhibition of E. coli GyrB ATPase activity using an ammonium molybdate/malachite green-based phosphate detection assay (Lanzetta, P. A., L. J. Alvarez, P. S. Reinach, and O. A. Candia, 1979, 100: 95-97). Assays can be performed in multiwell plates in 30 μl reactions containing: 50 mM Hepes buffer pH 7.5, 75 mM ammonium acetate, 8.0 mM magnesium chloride, 0.5 mM ethylenediaminetetraacetic acid, 5% glycerol, 1 mM 1,4-Dithio-DL-threitol, 200 nM bovine serum albumin, 1.6 μg/ml sheared salmon sperm DNA, 400 pM E. coli GyrA, 400 pM E. coli GyrB, 250 μM ATP, and compound in dimethylsulfoxide. Reactions can be quenched with 30 μl of ammonium molybdate/malachite green detection reagent containing 1.2 mM malachite green hydrochloride, 8.5 mM ammonium molybdate tetrahydrate, and 1 M hydrochloric acid. Plates can be read in an absorbance plate reader at 650 nm and percent inhibition values are calculated using dimethylsulfoxide (2%)-containing reactions as 0% inhibition and EDTA-containing (2.4 μM) reactions as 100% inhibition controls. An IC50 measurement of compound potency for each compound can be determined from reactions performed in the presence of 10 different compound concentrations. E. coli Topoisomerase IV ATPase Inhibition Activity: Compounds can be tested for inhibition of E. coli topoisomerase IV ATPase activity as described above for E. coli GyrB except the 30 μl reactions contained the following: 20 mM TRIS buffer pH 8, 50 mM ammonium acetate, 8 mM magnesium chloride, 5% glycerol, 5 mM 1,4-Dithio-DL-threitol, 0.005% Brij-35, 5 μg/ml sheared salmon sperm DNA, 500 pM E. coli ParC, 500 pM E. coli ParE, 160 μM ATP, and compound in dimethylsulfoxide. An IC50 measurement of compound potency for each compound can be determined from reactions performed in the presence of 10 different compound concentrations. S. aureus GyrB ATPase Inhibition Activity: Compounds may be tested for inhibition of S. aureus GyrB ATPase activity using an ammonium molybdate/malachite green-based phosphate detection assay (Lanzetta, P. A., L. J. Alvarez, P. S. Reinach, and O. A. Candia, 1979, 100: 95-97). Assays can be performed in multiwell plates in 30 μl reactions containing: 50 mM Hepes buffer pH 7.5, 75 mM ammonium acetate, 8.0 mM magnesium chloride, 0.5 mM ethylenediaminetetraacetic acid, 5% glycerol, 1.0 mM 1,4-Dithio-DL-threitol, 200 nM bovine serum albumin, 1.0 μg/ml sheared salmon sperm DNA, 250 pM E. coli GyrA, 250 pM S. aureus GyrB, 250 μM ATP, and compound in dimethylsulfoxide. Reactions can be quenched with 30 μl of ammonium molybdate/malachite green detection reagent containing 1.2 mM malachite green hydrochloride, 8.5 mM ammonium molybdate tetrahydrate, and 1 M hydrochloric acid. Plates can be read in an absorbance plate reader at 650 nm and percent inhibition values can be calculated using dimethylsulfoxide (2%)-containing reactions as 0% inhibition and EDTA-containing (2.4 μM) reactions as 100% inhibition controls. An IC50 measurement of compound potency for each compound can be determined from reactions performed in the presence of 10 different compound concentrations.
# Compounds of the invention were tested in an assay substantially similar to the assay described above for measuring the inhibition of S. aureus GyrB ATPase. Percent inhibition of S. aureus GyrB ATPase at a compound concentration of 1 μM (unless otherwise noted) is disclosed in the following table: […]
# Sequence of S. aureus GyrB ATPase (P0AES4 whole entry): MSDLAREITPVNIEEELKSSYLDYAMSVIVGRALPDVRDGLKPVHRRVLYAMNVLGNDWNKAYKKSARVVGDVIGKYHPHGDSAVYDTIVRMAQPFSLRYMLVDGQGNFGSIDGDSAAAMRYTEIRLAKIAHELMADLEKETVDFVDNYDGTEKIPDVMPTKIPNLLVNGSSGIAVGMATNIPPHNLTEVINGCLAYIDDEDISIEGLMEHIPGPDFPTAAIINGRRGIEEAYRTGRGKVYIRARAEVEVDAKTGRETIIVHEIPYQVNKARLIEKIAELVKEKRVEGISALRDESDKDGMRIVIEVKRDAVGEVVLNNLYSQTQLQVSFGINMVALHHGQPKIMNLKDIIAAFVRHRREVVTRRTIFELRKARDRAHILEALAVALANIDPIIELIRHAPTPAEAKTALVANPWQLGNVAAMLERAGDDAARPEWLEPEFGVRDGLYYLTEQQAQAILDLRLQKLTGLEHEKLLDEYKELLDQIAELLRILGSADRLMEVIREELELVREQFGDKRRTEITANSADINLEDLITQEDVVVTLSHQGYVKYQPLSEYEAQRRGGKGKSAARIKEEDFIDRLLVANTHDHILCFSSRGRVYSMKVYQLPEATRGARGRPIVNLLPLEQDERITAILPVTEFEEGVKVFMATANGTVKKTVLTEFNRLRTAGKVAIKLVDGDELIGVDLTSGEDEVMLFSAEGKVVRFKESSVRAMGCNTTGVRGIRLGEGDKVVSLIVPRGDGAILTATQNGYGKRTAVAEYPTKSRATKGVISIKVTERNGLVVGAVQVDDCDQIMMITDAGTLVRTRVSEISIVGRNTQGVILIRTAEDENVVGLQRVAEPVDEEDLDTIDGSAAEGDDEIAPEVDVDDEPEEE
# Sequence of S. aureus GyrB ATPase (P0A0K8 whole entry): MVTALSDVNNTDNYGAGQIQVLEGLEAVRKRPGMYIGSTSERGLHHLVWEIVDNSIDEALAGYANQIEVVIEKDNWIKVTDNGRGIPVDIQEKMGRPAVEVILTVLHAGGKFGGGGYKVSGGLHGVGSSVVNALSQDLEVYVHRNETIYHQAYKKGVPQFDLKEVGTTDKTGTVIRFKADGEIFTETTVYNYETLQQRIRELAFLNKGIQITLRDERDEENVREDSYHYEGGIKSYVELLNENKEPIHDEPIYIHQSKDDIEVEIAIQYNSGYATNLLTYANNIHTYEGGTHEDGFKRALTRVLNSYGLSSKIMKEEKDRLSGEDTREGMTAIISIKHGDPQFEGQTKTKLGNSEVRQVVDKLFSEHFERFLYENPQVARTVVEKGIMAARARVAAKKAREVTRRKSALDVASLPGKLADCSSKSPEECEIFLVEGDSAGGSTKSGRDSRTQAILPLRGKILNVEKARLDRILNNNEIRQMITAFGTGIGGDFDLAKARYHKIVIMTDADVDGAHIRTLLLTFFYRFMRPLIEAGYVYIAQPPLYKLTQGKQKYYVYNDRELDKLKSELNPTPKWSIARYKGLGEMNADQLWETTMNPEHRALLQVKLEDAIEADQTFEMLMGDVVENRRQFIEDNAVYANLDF
row,Compound,inhibition at 1 µM
1,"CCCO[C@H]1CN(c2nc(-c3nccn3CCOC)c(C(=O)O)s2)CC[C@H]1NC(=O)c1[nH]c(C)c(Cl)c1C#N [Example 209, 2-[(3S,4R)-4-{[(4-chloro-3-cyano-5-methyl-1H-pyrrol-2-yl)carbonyl]amino}-3-propoxypiperidin-1-yl]-4-[1-(2-methoxyethyl)-1H-imidazol-2-yl]-1,3-thiazole-5-carboxylic acid]",105%
2,CCO[C@H]1CN(c2nc(-c3cnc(N4CCN(C)CC4)cn3)c(C(=O)O)s2)CC[C@H]1NC(=O)c1[nH]c(C)c(Cl)c1Cl [Example 88],107%
3,"CCCO[C@H]1CN(c2nc(-c3cnccn3)c(C(=O)O)s2)CC[C@H]1NC(=O)c1[nH]c(C)c(Cl)c1C#N [Example 211, 2-[(3S,4R)-4-{[(4-chloro-3-cyano-5-methyl-1H-pyrrol-2-yl)carbonyl]amino}-3-propoxypiperidin-1-yl]-4-(pyrazin-2-yl)-1,3-thiazole-5-carboxylic acid]",107%
4,CCO[C@H]1CN(c2nc(-c3cnc(NCCOC)cn3)c(C(=O)O)s2)CC[C@H]1NC(=O)c1[nH]c(C)c(Cl)c1Cl [Example 90],103%
5,"COCCNc1cnc(-c2nc(N3CC[C@@H](NC(=O)c4[nH]c(C)c(Cl)c4Cl)[C@@H](C)C3)sc2C(=O)O)cn1 [Example 170, 2-[(3S,4R)-4-{[(3,4-dichloro-5-methyl-1H-pyrrol-2-yl)carbonyl]amino}-3-methylpiperidin-1-yl]-4-{5-[(2-methoxyethyl)amino]pyrazin-2-yl}-1,3-thiazole-5-carboxylic acid]",119%
6,"CCN1CCN(c2cnc(-c3nc(N4CC[C@@H](NC(=O)c5[nH]c(C)c(Cl)c5Cl)[C@@H](C)C4)sc3C(=O)O)cn2)CC1 [Example 164, 2-[(3S,4R)-4-{[(3,4-dichloro-5-methyl-1H-pyrrol-2-yl)carbonyl]amino}-3-methylpiperidin-1-yl]-4-[5-(4-ethylpiperazin-1-yl)pyrazin-2-yl]-1,3-thiazole-5-carboxylic acid]",117%
7,"CCCO[C@H]1CN(c2nc(-c3ncccc3F)c(C(=O)O)s2)CC[C@H]1NC(=O)c1[nH]c(C)c(Cl)c1Cl [Example 217, 2-[(3S,4R)-4-{[(3,4-dichloro-5-methyl-1H-pyrrol-2-yl)carbonyl]amino}-3-propoxypiperidin-1-yl]-4-(3-fluoropyridin-2-yl)-1,3-thiazole-5-carboxylic acid]",113%
8,CCO[C@H]1CN(c2nc(-c3ncnn3C)c(C(=O)O)s2)CC[C@H]1NC(=O)c1cc(Cl)c(C)[nH]1 [Example 16],103%
9,CO[C@H]1CN(c2nc(-c3cnc(N4CCN(CC5CCCO5)CC4)cn3)c(C(=O)O)s2)CC[C@H]1NC(=O)c1[nH]c(C)c(Cl)c1Cl (stereo partly shown) [Example 142],103%
10,"CO[C@H]1CN(c2nc(-c3nccc(N4CCN(C)CC4)n3)c(C(=O)O)s2)CC[C@H]1NC(=O)c1[nH]c(C)c(Cl)c1Cl [Example 191, 2-[(3S,4R)-4-{[(3,4-dichloro-5-methyl-1H-pyrrol-2-yl)carbonyl]amino}-3-methoxypiperidin-1-yl]-4-[4-(4-methylpiperazin-1-yl)pyrimidin-2-yl]-1,3-thiazole-5-carboxylic acid]",102%
11,CCO[C@H]1CN(c2nc(-c3cnc(N4CCN(C(CC)CC)CC4)cn3)c(C(=O)O)s2)CC[C@H]1NC(=O)c1[nH]c(C)c(Cl)c1Cl [Example 99],106%
12,"CCC(CC)N1CCN(c2cnc(-c3nc(N4CC[C@@H](NC(=O)c5[nH]c(C)c(Cl)c5Cl)[C@@H](C)C4)sc3C(=O)O)cn2)CC1 [Example 179, 2-[(3S,4R)-4-{[(3,4-dichloro-5-methyl-1H-pyrrol-2-yl)carbonyl]amino}-3-methylpiperidin-1-yl]-4-{5-[4-(pentan-3-yl)piperazin-1-yl]pyrazin-2-yl}-1,3-thiazole-5-carboxylic acid]",104%
13,CCO[C@H]1CN(c2nc(-c3cnc(N4CCNCC4)cn3)c(C(=O)O)s2)CC[C@H]1NC(=O)c1[nH]c(C)c(Cl)c1Cl [Example 89],110%

# From US8071605B2, “Piperidine compounds for use in the treatment of bacterial infections” (AstraZeneca AB, priority 2008, dated 2011)
